What all share (type): in vivo
Data set [1] has as its system Beet Armyworm (Spodoptera exigua, LAPHEG). The data set is described as follows: Bioassays on Beet Armyworm (BAW), 128-well diet tray assay. The settings on record: Spodoptera exigua; for mortality at 50 µg/cm2: 168 h, second instar larvae, 50 μg/cm^2 of test molecule on artificial diet, 25° C., five to seven days, average of eight wells, read-out: BAW % Control (or Mortality) rating. An outline of the steps:
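One to five second-instar larvae per well on artificial diet surface-treated with 50 μg/cm^2 test molecule (applied in 90:10 acetone-water, dried), eight wells per compound. Trays held vented at 25° C., 14:10 light-dark for five to seven days; percent mortality averaged over the eight wells.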

Data set [2] has as its system Yellow Fever Mosquito (Aedes aegypti, AEDSAE). The settings on record: for YFM rating: Table ABC / ABC-DP rating; for YFM % Control (or Mortality) rating: about 1 day-old larvae, 4000 ppm master solution diluted with 90:10 water/acetone, 15 μL per well plus 220 μL larval mixture, 3 days. The method in brief:
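Compounds from 4000 ppm DMSO stocks were diluted in 90:10 water/acetone and dispensed into wells, then infested with about 1-day-old larvae in liver-powder water. Covered plates were held at room temperature for 3 days and each well was scored for mortality against a rating scale; six replicate plates per compound.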

Data set [3] relates to Cabbage Looper (Trichoplusia ni, TRIPNI). The data set is described as follows: Bioassays on Cabbage Looper (CL), 128-well diet tray assay. The settings on record: Trichoplusia ni; for mortality at 50 µg/cm2: 168 h, second instar larvae, 50 μg/cm^2 of test molecule on artificial diet, 25° C., five to seven days, average of eight wells, read-out: CL % Control (or Mortality) rating. An outline of the steps:
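Second-instar larvae (1–5 per well) placed on artificial diet surface-treated with 50 μg/cm^2 test molecule applied in 90:10 acetone-water and dried. Held at 25° C., 14:10 light-dark, for five to seven days. Percent mortality scored per well and averaged over eight wells.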

Setting [4] is: Beet Armyworm, Table ABC / ABC-DP rating, read-out: BAW rating.
Where [5] appears, read: Cabbage Looper, Table ABC / ABC-DP rating, read-out: CL rating.
Setting [6] is: Beet Armyworm, rating class, read-out: BAW.
The mark [7] stands for this setting: Yellow Fever Mosquito, rating class.
Setting [8] is: Cabbage Looper, rating class, read-out: CL.
The mark [9] stands for this setting: Table ABC: Biological Results, species BAW, read-out: BAW.
The mark [10] stands for this setting: Table ABC: Biological Results, species YFM.
[11] abbreviates: Table ABC: Biological Results, species CL, read-out: CL.

Where two headings read alike, the source gives them in different places.

As for `CC(C)=NNC(=O)c1cc(NC(=O)[C@H]2[C@H](c3cc(Cl)cc(Cl)c3)C2(Cl)Cl)ccc1Cl` (relative stereo) [F3010, trans-2,2-Dichloro-N-(4-chloro-3-(2-(propan-2-ylidene)hydrazine-1-carbonyl)phenyl)-3-(3,5-dichlorophenyl)cyclopropane-1-carboxamide], the mortality at 50 µg/cm2 in data set [1] and in data set [3] was 50 to 100% throughout. Besides, the pest or weed control at 50 µg/cm2 in data set [1] (setting [4]) and in data set [3] (setting [5]) was 50 to 100% each time. Besides, in data set [2] (Yellow Fever Mosquito), the YFM rating result is recorded as “A (80–100)”. The “YFM % Control (or Mortality) rating” value in data set [2] is reported as “A (80–100)”.
Consider `Cc1c(NC(=O)c2cc(NC(=O)[C@H]3[C@H](c4ccc(F)c(C(F)(F)F)c4)C3(Cl)Cl)ccc2Cl)ccc(NC(=O)C(F)(F)F)c1C` [F1392, 2-Chloro-5-((1R,3R)-2,2-dichloro-3-(4-fluoro-3-(trifluoromethyl)phenyl)cyclopropane-1-carboxamido)-N-(2,3-dimethyl-4-(2,2,2-trifluoroacetamido)phenyl)benzamide], for which the pest or weed control at 50 µg/cm2 in data set [1] (setting [6]) and in data set [3] (setting [8]) was 50 to 100% in each case. Besides, the YFM entry in data set [2] (setting [7]) is given as “A (80–100)”.
Consider `Nc1c(F)ccc(NC(=O)c2cc(NC(=O)[C@H]3[C@H](c4cc(Cl)cc(C(F)(F)F)c4)C3(Cl)Cl)ccc2Cl)c1F` (relative stereo) [F1127, trans-N-(3-Amino-2,4-difluorophenyl)-2-chloro-5-(2,2-dichloro-3-(3-chloro-5-(trifluoromethyl)phenyl)cyclopropane-1-carboxamido)benzamide], for which the pest or weed control at 50 µg/cm2 in data set [1] (setting [9]) and in data set [3] (setting [11]) was 50 to 100% in each case. The YFM entry in data set [2] (setting [10]) is given as “A (80–100)”.
Consider `CC(C)(C)OC(=O)Nc1c(F)ccc(NC(=O)c2cc(NC(=O)[C@H]3[C@H](c4cc(Cl)cc(C(F)(F)F)c4)C3(Cl)Cl)ccc2Cl)c1F` (relative stereo) [F1119, trans-tert-Butyl-(3-(2-chloro-5-(2,2-dichloro-3-(3-chloro-5-(trifluoromethyl)phenyl)cyclopropane-1-carboxamido)benzamido)-2,6-difluorophenyl)carbamate], for which the pest or weed control at 50 µg/cm2 in data set [1] (setting [9]) and in data set [3] (setting [11]) was 50 to 100% throughout. Moreover, the YFM entry in data set [2] (setting [10]) is reported as “A (80–100)”.
On to `O=C(Nc1ccc(F)c(NC(=O)C(F)(F)Cl)c1F)c1cc(NC(=O)[C@H]2[C@H](c3ccc(Cl)c(C(F)(F)F)c3)C2(Cl)Cl)ccc1Cl` [F1719, 2-Chloro-N-(3-(2-chloro-2,2-difluoroacetamido)-2,4-difluorophenyl)-5-((1R,3R)-2,2-dichloro-3-(4-chloro-3-(trifluoromethyl)phenyl)cyclopropane-1-carboxamido)benzamide], for which the pest or weed control at 50 µg/cm2 in data set [1] (setting [6]) and in data set [3] (setting [8]) was 50 to 100% throughout. In addition, the YFM entry in data set [2] (setting [7]) is given as “A (80–100)”.
Consider `O=C(NNCc1ccc(F)cc1F)c1cc(NC(=O)[C@H]2[C@H](c3cc(Cl)cc(Cl)c3)C2(Cl)Cl)ccc1Cl` (relative stereo) [F2547, trans-2,2-dichloro-N-(4-chloro-3-(2-(2,4-difluorobenzyl)hydrazine-1-carbonyl)phenyl)-3-(3,5-dichlorophenyl)cyclopropane-1-carboxamide], for which the pest or weed control at 50 µg/cm2 in data set [1] (setting [4]) and in data set [3] (setting [5]) was 50 to 100% in each case. The YFM rating result in data set [2] (Yellow Fever Mosquito) is given as “A (80–100)”.
Turning to `CN(NC(=O)c1cc(NC(=O)[C@H]2[C@H](c3cc(Cl)cc(Cl)c3)C2(Cl)Cl)ccc1Cl)C(=O)CC1CC1` (relative stereo) [F2524, trans-2,2-Dichloro-N-(4-chloro-3-(2-(2-cyclopropylacetyl)-2-methylhydrazine-1-carbonyl)phenyl)-3-(3,5-dichlorophenyl)cyclopropane-1-carboxamide], the pest or weed control at 50 µg/cm2 in data set [1] (setting [4]) and in data set [3] (setting [5]) was 50 to 100% each time. Besides, the YFM rating result in data set [2] (Yellow Fever Mosquito) is “A (80–100)”.
Turning to `C#CCN(C(=O)CC#N)c1c(F)ccc(NC(=O)c2cc(NC(=O)[C@H]3[C@H](c4ccc(F)c(C(F)(F)F)c4)C3(Cl)Cl)ccc2Cl)c1F` [F1810, 2-Chloro-N-(3-(2-cyano-N-(prop-2-yn-1-yl)acetamido)-2,4-difluorophenyl)-5-((1R,3R)-2,2-dichloro-3-(4-fluoro-3-(trifluoromethyl)phenyl)cyclopropane-1-carboxamido)benzamide], the pest or weed control at 50 µg/cm2 in data set [1] (setting [4]) and in data set [3] (setting [5]) was 50 to 100% in each case. Besides, the YFM rating entry in data set [2] (Yellow Fever Mosquito) is “A (80–100)”.
Regarding `O=C(NNc1ccccn1)c1cc(NC(=O)[C@H]2[C@H](c3cc(Cl)cc(Cl)c3)C2(Cl)Cl)ccc1Cl` (relative stereo) [F2502, trans-2,2-dichloro-N-(4-chloro-3-(2-(pyridin-2-yl)hydrazine-1-carbonyl)phenyl)-3-(3,5-dichlorophenyl)cyclopropane-1-carboxamide], the pest or weed control at 50 µg/cm2 in data set [1] (setting [4]) and in data set [3] (setting [5]) was 50 to 100% in each case. Besides, the YFM rating result in data set [2] (Yellow Fever Mosquito) is “A (80–100)”.
On to `CC(=O)CNC(=O)c1cc(NC(=O)[C@H]2[C@H](c3cc(Cl)cc(Cl)c3)C2(Cl)Cl)cc(F)c1Cl` (relative stereo) [F2090, trans-2-Chloro-5-(2,2-dichloro-3-(3,5-dichlorophenyl)cyclopropane-1-carboxamido)-3-fluoro-N-(2-oxopropyl)benzamide], for which the pest or weed control at 50 µg/cm2 in data set [1] (setting [4]) and in data set [3] (setting [5]) was 50 to 100% each time. In addition, the YFM rating entry in data set [2] (Yellow Fever Mosquito) is “A (80–100)”.
Regarding `O=C(NCCNC(=O)C(F)(F)C(F)(F)F)c1cc(NC(=O)[C@H]2[C@H](c3cc(Cl)cc(Cl)c3)C2(Cl)Cl)ccc1Cl` (relative stereo) [F2096, trans-2-Chloro-5-(2,2-dichloro-3-(3,5-dichlorophenyl)cyclopropane-1-carboxamido)-N-(2-(2,2,3,3,3-pentafluoropropanamido)ethyl)benzamide], the pest or weed control at 50 µg/cm2 in data set [1] (setting [4]) and in data set [3] (setting [5]) was 50 to 100% each time. Besides, the YFM rating entry in data set [2] (Yellow Fever Mosquito) is recorded as “B (More than 0 – Less than 80)”.
For the compound `O=C(NNc1ccc(OC(F)(F)F)cc1)c1cc(NC(=O)[C@H]2[C@H](c3cc(Cl)cc(Cl)c3)C2(Cl)Cl)ccc1Cl` (relative stereo) [F2564, trans-2,2-Dichloro-N-(4-chloro-3-(2-(4-(trifluoromethoxy)phenyl)hydrazine-1-carbonyl)phenyl)-3-(3,5-dichlorophenyl)cyclopropane-1-carboxamide], the mortality at 50 µg/cm2 in data set [1] and in data set [3] was 50 to 100% in each case. The pest or weed control at 50 µg/cm2 in data set [1] (setting [4]) and in data set [3] (setting [5]) was 50 to 100% throughout. In addition, in data set [2] (Yellow Fever Mosquito), the YFM rating entry was “A (80–100)”. The “YFM % Control (or Mortality) rating” value in data set [2] is recorded as “A (80–100)”.
Turning to `COc1c(F)cc(NC(=O)[C@H]2[C@H](c3ccc(F)c(Cl)c3)C2(Cl)Cl)cc1C(=O)NCC(F)(F)F` (relative stereo) [F2058, trans-5-(2,2-Dichloro-3-(3-chloro-4-fluorophenyl)cyclopropane-1-carboxamido)-3-fluoro-2-methoxy-N-(2,2,2-trifluoroethyl)benzamide], the pest or weed control at 50 µg/cm2 in data set [1] (setting [4]) and in data set [3] (setting [5]) was 50 to 100% each time. For the same compound, in data set [2] (Yellow Fever Mosquito), the YFM rating entry was “A (80–100)”.
On to `CC(C)(Br)C(=O)Nc1c(F)ccc(NC(=O)c2cc(NC(=O)[C@H]3[C@H](c4ccc(F)c(C(F)(F)F)c4)C3(Cl)Cl)ccc2Cl)c1F` [F1354, N-(3-(2-Bromo-2-methylpropanamido)-2,4-difluorophenyl)-2-chloro-5-((1R,3R)-2,2-dichloro-3-(4-fluoro-3-(trifluoromethyl)phenyl)cyclopropane-1-carboxamido)benzamide], for which the pest or weed control at 50 µg/cm2 in data set [1] (setting [9]) and in data set [3] (setting [11]) was 50 to 100% each time. Also, in data set [2] (setting [10]), the YFM entry is recorded as “A (80–100)”.
Take `CC(OC(F)(F)F)C(=O)Nc1c(F)ccc(NC(=O)c2cc(NC(=O)[C@H]3[C@H](c4ccc(Cl)c(Cl)c4)C3(Cl)Cl)ccc2Cl)c1F` (stereo partly drawn) [F1767, 2-Chloro-5-((1R,3R)-2,2-dichloro-3-(3,4-dichlorophenyl)cyclopropane-1-carboxamido)-N-(2,4-difluoro-3-(2-(trifluoromethoxy)propanamido)phenyl)benzamide]: the pest or weed control at 50 µg/cm2 in data set [1] (setting [4]) and in data set [3] (setting [5]) was 50 to 100% throughout. Moreover, the YFM rating entry in data set [2] (Yellow Fever Mosquito) is on record as “A (80–100)”.
For `CC(=O)Nc1ccc(NC(=O)c2cc(NC(=O)[C@H]3[C@H](c4ccc(F)c(Cl)c4)C3(Cl)Cl)cc(C)c2Cl)cc1` (relative stereo) [F1186, trans-N-(4-Acetamidophenyl)-2-chloro-5-(2,2-dichloro-3-(3-chloro-4-fluorophenyl)cyclopropane-1-carboxamido)-3-methylbenzamide], the pest or weed control at 50 µg/cm2 in data set [1] (setting [9]) and in data set [3] (setting [11]) was 50 to 100% throughout. The YFM entry in data set [2] (setting [10]) was “A (80–100)”.

For the origin of these results see patent US20250228239A1, “MOLECULES HAVING PESTICIDAL UTILITY, AND INTERMEDIATES, COMPOSITIONS, AND PROCESSES, RELATED THERETO” (priority 2024, published 2025).
